In PubChem BioAssay (NCI):
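Five concentrations, 48 hours, 96-well plates. TGI: total growth inhibition.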

Key:
Assay in all cases: NCI tumour cell line growth inhibition, 48 h
KM12 colon = tested on: KM12 colon
RXF-631 renal = tested on: RXF-631 renal
SF-295 CNS = tested on: SF-295 CNS
SK-MEL-2 melanoma = tested on: SK-MEL-2 melanoma
CAKI-1 renal = tested on: CAKI-1 renal
OVCAR-8 ovarian = tested on: OVCAR-8 ovarian
K-562 leukemia = tested on: K-562 leukemia
MOLT-4 leukemia = tested on: MOLT-4 leukemia
ACHN renal = tested on: ACHN renal
SN12C renal = tested on: SN12C renal
MALME-3M melanoma = tested on: MALME-3M melanoma
SF-268 CNS = tested on: SF-268 CNS
RXF 393 renal = tested on: RXF 393 renal
SK-OV-3 ovarian = tested on: SK-OV-3 ovarian
HOP-62 NSCLC = tested on: HOP-62 NSCLC
HL-60(TB) leukemia = tested on: HL-60(TB) leukemia
LXFL 529 NSCLC = tested on: LXFL 529 NSCLC
TK-10 renal = tested on: TK-10 renal
NCI-H460 lung = tested on: NCI-H460 lung
IGROV1 ovarian = tested on: IGROV1 ovarian
OVCAR-5 ovarian = tested on: OVCAR-5 ovarian
HCC-2998 colon = tested on: HCC-2998 colon
RPMI-8226 leukemia = tested on: RPMI-8226 leukemia
SK-MEL-5 melanoma = tested on: SK-MEL-5 melanoma
KM20L2 colon = tested on: KM20L2 colon
CCRF-CEM leukemia = tested on: CCRF-CEM leukemia
SR leukemia = tested on: SR leukemia
DMS 114 small cell lung = tested on: DMS 114 small cell lung
786-0 renal = tested on: 786-0 renal
EKVX NSCLC = tested on: EKVX NSCLC
HCT-15 colon = tested on: HCT-15 colon
UACC-257 melanoma = tested on: UACC-257 melanoma
XF 498 CNS = tested on: XF 498 CNS
M19-MEL melanoma = tested on: M19-MEL melanoma
DMS 273 small cell lung = tested on: DMS 273 small cell lung
HT29 colon = tested on: HT29 colon
NCI-H522 lung = tested on: NCI-H522 lung
SK-MEL-28 melanoma = tested on: SK-MEL-28 melanoma
OVCAR-3 ovarian = tested on: OVCAR-3 ovarian
COLO 205 colon = tested on: COLO 205 colon
A549 NSCLC = tested on: A549 NSCLC
NCI-H23 lung = tested on: NCI-H23 lung
SW-620 colon = tested on: SW-620 colon
UACC-62 melanoma = tested on: UACC-62 melanoma
DLD-1 colon = tested on: DLD-1 colon
U251 CNS = tested on: U251 CNS
LOX IMVI melanoma = tested on: LOX IMVI melanoma
HOP-92 NSCLC = tested on: HOP-92 NSCLC
P388 leukemia = tested on: P388 leukemia
NCI/ADR-RES ovarian = tested on: NCI/ADR-RES ovarian
HOP-18 NSCLC = tested on: HOP-18 NSCLC
P388/ADR leukemia = tested on: P388/ADR leukemia
OVCAR-4 ovarian = tested on: OVCAR-4 ovarian
SN12K1 renal = tested on: SN12K1 renal
SNB-19 CNS = tested on: SNB-19 CNS
HCT-116 colon = tested on: HCT-116 colon
SNB-78 CNS = tested on: SNB-78 CNS
MCF7 breast = tested on: MCF7 breast
NCI-H226 lung = tested on: NCI-H226 lung
SNB-75 CNS = tested on: SNB-75 CNS
A498 renal = tested on: A498 renal
SF-539 CNS = tested on: SF-539 CNS
UO-31 renal = tested on: UO-31 renal

COC(=O)C(Cc1cc(OC)c(OC)c(OC)c1)C(=O)OC
TGI (KM12 colon): > 320 µM | TGI (RXF-631 renal): > 320 µM | TGI (SF-295 CNS): > 320 µM | TGI (SK-MEL-2 melanoma): > 320 µM | TGI (CAKI-1 renal): > 320 µM | TGI (OVCAR-8 ovarian): > 320 µM | TGI (K-562 leukemia): > 320 µM | TGI (MOLT-4 leukemia): > 320 µM | TGI (ACHN renal): > 320 µM | TGI (SN12C renal): > 320 µM | TGI (MALME-3M melanoma): > 320 µM | TGI (SF-268 CNS): > 320 µM | TGI (RXF 393 renal): > 320 µM | TGI (SK-OV-3 ovarian): > 320 µM | TGI (HOP-62 NSCLC): > 320 µM | TGI (HL-60(TB) leukemia): > 320 µM | TGI (LXFL 529 NSCLC): > 320 µM | TGI (TK-10 renal): > 320 µM | TGI (NCI-H460 lung): > 320 µM | TGI (IGROV1 ovarian): > 320 µM | TGI (OVCAR-5 ovarian): > 320 µM | TGI (HCC-2998 colon): > 320 µM | TGI (RPMI-8226 leukemia): > 320 µM | TGI (SK-MEL-5 melanoma): > 320 µM | TGI (KM20L2 colon): > 320 µM | TGI (CCRF-CEM leukemia): > 320 µM | TGI (SR leukemia): > 320 µM | TGI (DMS 114 small cell lung): > 320 µM | TGI (786-0 renal): > 320 µM | TGI (EKVX NSCLC): > 320 µM | TGI (HCT-15 colon): > 320 µM | TGI (UACC-257 melanoma): > 320 µM | TGI (XF 498 CNS): > 320 µM | TGI (M19-MEL melanoma): > 320 µM | TGI (DMS 273 small cell lung): > 320 µM | TGI (HT29 colon): > 320 µM | TGI (NCI-H522 lung): > 320 µM | TGI (SK-MEL-28 melanoma): > 320 µM | TGI (OVCAR-3 ovarian): > 320 µM | TGI (COLO 205 colon): > 320 µM | TGI (A549 NSCLC): > 320 µM | TGI (NCI-H23 lung): > 320 µM | TGI (SW-620 colon): > 320 µM | TGI (UACC-62 melanoma): > 320 µM | TGI (DLD-1 colon): > 320 µM | TGI (U251 CNS): > 320 µM | TGI (LOX IMVI melanoma): > 320 µM | TGI (HOP-92 NSCLC): > 320 µM

COc1ccc2nc3c(C(=O)NCCN(C)C)cccc3cc2c1
TGI (KM12 colon): 13 µM | TGI (SF-295 CNS): 6.2 µM | TGI (P388 leukemia): 1.49 µM | TGI (NCI/ADR-RES ovarian): 4.99 µM | TGI (SK-MEL-2 melanoma): 5.44 µM | TGI (OVCAR-8 ovarian): 4.46 µM | TGI (K-562 leukemia): 17.1 µM | TGI (HOP-18 NSCLC): > 100 µM | TGI (MOLT-4 leukemia): 8.4 µM | TGI (SN12C renal): 6.93 µM | TGI (P388/ADR leukemia): 3.05 µM | TGI (MALME-3M melanoma): > 21.4 µM | TGI (OVCAR-4 ovarian): 8.49 µM | TGI (SF-268 CNS): 12.1 µM | TGI (RXF 393 renal): 5.28 µM | TGI (SK-OV-3 ovarian): 7.3 µM | TGI (HOP-62 NSCLC): 7.71 µM | TGI (HL-60(TB) leukemia): 4.64 µM | TGI (SN12K1 renal): 3.27 µM | TGI (NCI-H460 lung): 3.65 µM | TGI (IGROV1 ovarian): 6.77 µM | TGI (OVCAR-5 ovarian): 5.9 µM | TGI (HCC-2998 colon): 16.2 µM | TGI (RPMI-8226 leukemia): 6.23 µM | TGI (SK-MEL-5 melanoma): 3.28 µM | TGI (KM20L2 colon): 4.36 µM | TGI (CCRF-CEM leukemia): 8.14 µM | TGI (DMS 114 small cell lung): 4.48 µM | TGI (SNB-19 CNS): 7.58 µM | TGI (HCT-116 colon): 9.27 µM | TGI (EKVX NSCLC): 6.25 µM | TGI (HCT-15 colon): 9.84 µM | TGI (UACC-257 melanoma): 5.01 µM | TGI (SNB-78 CNS): 18.3 µM | TGI (MCF7 breast): 7.22 µM | TGI (XF 498 CNS): 4.01 µM | TGI (DMS 273 small cell lung): 6.15 µM | TGI (HT29 colon): 6.37 µM | TGI (SK-MEL-28 melanoma): 8.79 µM | TGI (OVCAR-3 ovarian): > 28.6 µM | TGI (COLO 205 colon): 3.74 µM | TGI (A549 NSCLC): 5.26 µM | TGI (NCI-H23 lung): 5.09 µM | TGI (SW-620 colon): 5.1 µM | TGI (NCI-H226 lung): 4.14 µM | TGI (SNB-75 CNS): 9 µM | TGI (UACC-62 melanoma): 3.33 µM | TGI (A498 renal): 3.08 µM | TGI (SF-539 CNS): 7.79 µM | TGI (U251 CNS): 14.2 µM | TGI (LOX IMVI melanoma): 3.59 µM | TGI (HOP-92 NSCLC): 5.76 µM | TGI (UO-31 renal): 3.97 µM
